Tested on: 699152-130-R-J1-PDC complex spheroid viability
Assay: Anticancer human tumor 699152-130-R-J1-PDC patient-derived pancreatic carcinoma cell line growth inhibition [POLQ]
Conditions: for IC50: curve of first compound; for viability, T/C: stronger effect = lower value
Summary of the method: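 PDC + HUVEC + MSC complex spheroids; POLQ inhibitors ± partner drugs; top conc. at/near clinical Cmax, else 10 microM (SN-38 1 microM), half-log dilutions; 37 degrees C, 5% CO2.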

[1] = second compound 0.0316 µM, first compound 0.0316 µM
[2] = second compound 0.0316 µM, first compound 0.1 µM
[3] = second compound 0.1 µM, first compound 0.0316 µM
[4] = second compound 0.1 µM, first compound 0.1 µM
[5] = second compound 0.316 µM, first compound 0.0316 µM
[6] = second compound 0.316 µM, first compound 0.1 µM
[7] = second compound 1 µM, first compound 0.0316 µM
[8] = second compound 1 µM, first compound 0.1 µM
[9] = second compound 3.16 µM, first compound 0.0316 µM
[10] = second compound 3.16 µM, first compound 0.1 µM
[11] = second compound 10 µM, first compound 0.0316 µM
[12] = second compound 10 µM, first compound 0.1 µM
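Note: spheroids exposed to agents for 7 days before viability reading.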
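Throughout, for viability, T/C: percent of DMSO vehicle control viability so 100% = vehicle and 0% = no viable signal.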

`COc1ccc([C@@H](O)c2cc(-c3ncnc4cc(N5CCOCC5)ccc34)c(F)cc2Cl)nn1` + COC1C(OC(N)=O)C(O)C(Oc2ccc3c(O)c(NC(=O)c4ccc(O)c(CC=C(C)C)c4)c(=O)oc3c2C)OC1(C)C gave an IC50 (second compound 0.0316 µM) of 3.83 µM, an IC50 (second compound 0.1 µM) of 4.13 µM and an IC50 (second compound 0.316 µM) of 3.83 µM. It also gave an IC50 (second compound 1 µM) of 3.58 µM, an IC50 (second compound 3.16 µM) of 4.02 µM and an IC50 (second compound 10 µM) of 4.25 µM. It also gave a viability, T/C [1] of 94.5%, a viability, T/C [2] of 96.9% and a viability, T/C (second compound 0.0316 µM, first compound 0.316 µM) of 85.6%. For the same compound, the viability, T/C (second compound 0.0316 µM, first compound 1 µM) was 82.8%, the viability, T/C (second compound 0.0316 µM, first compound 3.16 µM) was 53.9% and the viability, T/C (second compound 0.0316 µM, first compound 10 µM) was 26.3%. For the same compound, the viability, T/C [3] was 112%, the viability, T/C [4] was 87% and the viability, T/C (second compound 0.1 µM, first compound 0.316 µM) was 87%. It also gave a viability, T/C (second compound 0.1 µM, first compound 1 µM) of 83%, a viability, T/C (second compound 0.1 µM, first compound 3.16 µM) of 56.1% and a viability, T/C (second compound 0.1 µM, first compound 10 µM) of 27.4%. The viability, T/C [5] was 113%, the viability, T/C [6] was 107% and the viability, T/C (second compound 0.316 µM, first compound 0.316 µM) was 92.2%. It also gave a viability, T/C (second compound 0.316 µM, first compound 1 µM) of 80.4%, a viability, T/C (second compound 0.316 µM, first compound 3.16 µM) of 54.7% and a viability, T/C (second compound 0.316 µM, first compound 10 µM) of 24%. For the same compound, the viability, T/C [7] was 118%, the viability, T/C [8] was 98.1% and the viability, T/C (second compound 1 µM, first compound 0.316 µM) was 96.9%. The viability, T/C (second compound 1 µM, first compound 1 µM) was 70.1%, the viability, T/C (second compound 1 µM, first compound 3.16 µM) was 58.5% and the viability, T/C (second compound 1 µM, first compound 10 µM) was 22.6%. It also gave a viability, T/C [9] of 98.3%, a viability, T/C [10] of 108% and a viability, T/C (second compound 3.16 µM, first compound 0.316 µM) of 86.6%. The viability, T/C (second compound 3.16 µM, first compound 1 µM) was 88.7%, the viability, T/C (second compound 3.16 µM, first compound 3.16 µM) was 56.2% and the viability, T/C (second compound 3.16 µM, first compound 10 µM) was 21.6%. The viability, T/C [11] was 101%, the viability, T/C [12] was 90.8% and the viability, T/C (second compound 10 µM, first compound 0.316 µM) was 90.9%. The viability, T/C (second compound 10 µM, first compound 1 µM) was 71.6%, the viability, T/C (second compound 10 µM, first compound 3.16 µM) was 60.6% and the viability, T/C (second compound 10 µM, first compound 10 µM) was 27.7%.

For `Cn1ncnc1[C@H]1c2n[nH]c(=O)c3cc(F)cc(c23)N[C@@H]1c1ccc(F)cc1` + COC1C(OC(N)=O)C(O)C(Oc2ccc3c(O)c(NC(=O)c4ccc(O)c(CC=C(C)C)c4)c(=O)oc3c2C)OC1(C)C, the IC50 (second compound 0.0316 µM) was greater than 0.1 µM, the IC50 (second compound 0.1 µM) was greater than 0.1 µM and the IC50 (second compound 0.316 µM) was greater than 0.1 µM. It also gave an IC50 (second compound 1 µM) greater than 0.1 µM, an IC50 (second compound 3.16 µM) greater than 0.1 µM and an IC50 (second compound 10 µM) greater than 0.1 µM. The viability, T/C (second compound 0.0316 µM, first compound 0.000316 µM) was 114%, the viability, T/C (second compound 0.0316 µM, first compound 0.001 µM) was 86.2% and the viability, T/C (second compound 0.0316 µM, first compound 0.00316 µM) was 101%. For the same compound, the viability, T/C (second compound 0.0316 µM, first compound 0.01 µM) was 93.4%, the viability, T/C [1] was 92.9% and the viability, T/C [2] was 84.8%. The viability, T/C (second compound 0.1 µM, first compound 0.000316 µM) was 102%, the viability, T/C (second compound 0.1 µM, first compound 0.001 µM) was 105% and the viability, T/C (second compound 0.1 µM, first compound 0.00316 µM) was 87.1%. For the same compound, the viability, T/C (second compound 0.1 µM, first compound 0.01 µM) was 111%, the viability, T/C [3] was 85% and the viability, T/C [4] was 80%. For the same compound, the viability, T/C (second compound 0.316 µM, first compound 0.000316 µM) was 101%, the viability, T/C (second compound 0.316 µM, first compound 0.001 µM) was 99.5% and the viability, T/C (second compound 0.316 µM, first compound 0.00316 µM) was 92.3%. It also gave a viability, T/C (second compound 0.316 µM, first compound 0.01 µM) of 103%, a viability, T/C [5] of 87.8% and a viability, T/C [6] of 83.6%. It also gave a viability, T/C (second compound 1 µM, first compound 0.000316 µM) of 119%, a viability, T/C (second compound 1 µM, first compound 0.001 µM) of 107% and a viability, T/C (second compound 1 µM, first compound 0.00316 µM) of 101%. For the same compound, the viability, T/C (second compound 1 µM, first compound 0.01 µM) was 102%, the viability, T/C [7] was 93.9% and the viability, T/C [8] was 82.5%. The viability, T/C (second compound 3.16 µM, first compound 0.000316 µM) was 95.3%, the viability, T/C (second compound 3.16 µM, first compound 0.001 µM) was 89.3% and the viability, T/C (second compound 3.16 µM, first compound 0.00316 µM) was 90.9%. The viability, T/C (second compound 3.16 µM, first compound 0.01 µM) was 96.9%, the viability, T/C [9] was 90.8% and the viability, T/C [10] was 80.8%. For the same compound, the viability, T/C (second compound 10 µM, first compound 0.000316 µM) was 98.7%, the viability, T/C (second compound 10 µM, first compound 0.001 µM) was 105% and the viability, T/C (second compound 10 µM, first compound 0.00316 µM) was 93.9%. It also gave a viability, T/C (second compound 10 µM, first compound 0.01 µM) of 103%, a viability, T/C [11] of 88.4% and a viability, T/C [12] of 90.4%.

Source: PubChem BioAssay AID1963835 (Molecular Pharmacology Branch, DTP, NCI, 2024)
